{
  "source": "paper PMC6166404",
  "about": "(Journal of medicinal chemistry, 2018)",
  "key": {"human IMPDH2": {"molecular_target": "human IMPDH2 (Homo sapiens, UniProt P12268)", "assay": "biochemical"}, "human GMPR2": {"molecular_target": "T1, human GMPR2 (Homo sapiens, UniProt Q9P2T1)", "T1 sequence (Q9P2T1 1-348)": "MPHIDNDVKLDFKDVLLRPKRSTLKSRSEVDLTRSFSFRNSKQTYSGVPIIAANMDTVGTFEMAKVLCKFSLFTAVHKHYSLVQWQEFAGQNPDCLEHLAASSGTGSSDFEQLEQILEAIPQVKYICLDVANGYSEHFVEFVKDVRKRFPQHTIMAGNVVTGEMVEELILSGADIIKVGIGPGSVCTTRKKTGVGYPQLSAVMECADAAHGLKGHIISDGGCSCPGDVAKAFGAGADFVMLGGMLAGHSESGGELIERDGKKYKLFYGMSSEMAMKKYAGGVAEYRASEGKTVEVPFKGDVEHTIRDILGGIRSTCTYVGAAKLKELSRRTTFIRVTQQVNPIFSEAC", "assay": "biochemical"}, "HepG2 cells": {"test_system": "HepG2 cells", "settings": "24 h; for cytotoxicity, lactate dehydrogenase release: 25 μM, range stated for the three compounds together; for LD50 / cytotoxicity (in words): LDH release; for cytotoxicity (in words): up to 25 μM"}, "Mtb H37Rv (ATCC 27294) [1]": {"test_system": "Mtb H37Rv (ATCC 27294)", "type": "cell-based", "settings": "for antibacterial activity over two weeks: two weeks in culture; for effect of guanine on MIC: presence of guanine (200 μM)"}, "H37Rv": {"test_system": "H37Rv", "type": "cell-based", "settings": "addition of ATc"}, "HEK293T cells": {"test_system": "HEK293T cells", "settings": "25 μM, LDH release"}, "[2]": {"settings": "2 h"}, "Hela cells": {"test_system": "Hela cells", "settings": "25 μM, LDH release"}, "MCF7 cells": {"test_system": "MCF7 cells", "settings": "25 μM, LDH release"}, "Mtb H37Rv (ATCC 27294) [3]": {"test_system": "Mtb H37Rv (ATCC 27294)", "settings": "7H9/ADC/Tween medium, no guanine, 1 week; cited from earlier work"}},
  "note": "pKi: −log10 of the molar value. Where two headings read alike, the source gives them in different places.",
  "data": [
    {"compound": "C[C@H](Oc1cccc(Cl)c1Cl)C(=O)Nc1ccc2oc(-c3ccc(-c4nnn[nH]4)cc3)nc2c1", "note": "[Compound 27, (S)-N-(2-(4-(1H-Tetrazol-5-yl)phenyl)benzo[d]oxazol-5-yl)-2-(2,3-dichlorophenoxy)propanamide]", "values": [
      {"measurement": "pKi", "setting": "human IMPDH2", "result": "< 5.30"},
      {"measurement": "pKi", "setting": "human GMPR2", "result": "< 5.30"}
    ]},
    {"compound": "COc1ccc(-c2nc3cc(NC(=O)[C@H](C)Oc4ccccc4C#N)ccc3o2)cc1", "note": "[Compound 8u, (S)-2-(2-Cyanophenoxy)-N-(2-(4-methoxyphenyl)benzo[d]oxazol-5-yl)propanamide]", "values": [
      {"measurement": "cytotoxicity, lactate dehydrogenase release", "setting": "HepG2 cells", "result": "9–13%"},
      {"measurement": "LD50", "setting": "HepG2 cells", "result": "> 25", "unit": "µM"},
      {"measurement": "antibacterial activity over two weeks", "setting": "Mtb H37Rv (ATCC 27294) [1]; Mtb H37Rv", "result": "retained antibacterial activity"}
    ]},
    {"compound": "CCOC(=O)COc1ccc(-c2nc3cc(NC(=O)[C@H](C)Oc4cccc(Cl)c4Cl)ccc3o2)cc1", "note": "[Compound 18a, Ethyl (S)-2-(4-(5-(2-(2,3-dichlorophenoxy)propanamido)benzo[d]oxazol-2-yl)phenoxy)acetate]", "values": [
      {"measurement": "cytotoxicity (in words)", "setting": "HepG2 cells", "result": "Only compounds 8p, 8u and 17b displayed measurable cytotoxicity"},
      {"measurement": "antibacterial activity over two weeks", "setting": "Mtb H37Rv (ATCC 27294) [1]; Mtb H37Rv", "result": "retained antibacterial activity"},
      {"measurement": "effect of ATc on antibacterial activity against the wild-type strain", "setting": "H37Rv", "result": "not affected"}
    ]},
    {"compound": "C[C@H](Oc1cccc(F)c1F)C(=O)Nc1ccc2oc(-c3ccc(C#N)cc3)nc2c1", "note": "[Compound 8p, (S)-N-(2-(4-Cyanophenyl)benzo[d]oxazol-5-yl)-2-(2,3-difluorophenoxy)propanamide]", "values": [
      {"measurement": "cytotoxicity, lactate dehydrogenase release", "setting": "HepG2 cells", "result": "9–13%"},
      {"measurement": "LD50", "setting": "HepG2 cells", "result": "> 25", "unit": "µM"}
    ]},
    {"compound": "C[C@H](Oc1cccc(F)c1F)C(=O)Nc1ccc2oc(-c3ccncc3)nc2c1", "note": "[Compound 8l, (S)-2-(2,3-Difluorophenoxy)-N-(2-(pyridin-4-yl)benzo[d]oxazol-5-yl)propanamide]", "values": [
      {"measurement": "cytotoxicity (in words)", "setting": "HepG2 cells", "result": "Only compounds 8p, 8u and 17b displayed measurable cytotoxicity"},
      {"measurement": "antibacterial activity over two weeks", "setting": "Mtb H37Rv (ATCC 27294) [1]; Mtb H37Rv", "result": "retained antibacterial activity"}
    ]},
    {"compound": "(S)-2-(2,3-Dichlorophenoxy)-N-(2-(2-methoxypyridin-4-yl)benzo[d]oxazol-5-yl)propanamide [Compound 8b]", "values": [
      {"measurement": "7H9/ADC/Tween MIC +Gua", "setting": "Mtb H37Rv (ATCC 27294) [1]; Mtb H37Rv, 7H9/ADC/Tween medium, 200 μM guanine, 1 week", "result": "14 ± 5 (2) μM"},
      {"measurement": "7H9/ADC/Tween MIC −Gua", "setting": "Mtb H37Rv (ATCC 27294) [1]; Mtb H37Rv, 7H9/ADC/Tween medium, no guanine, 1 week", "result": "3.5 ± 1.2 (2) μM"},
      {"measurement": "GAST/Fe MIC +Gua", "setting": "Mtb H37Rv (ATCC 27294) [1]; Mtb H37Rv, GAST/Fe medium, 200 μM guanine, 1 week", "result": "6.3 ± 0.0 (2) μM"},
      {"measurement": "GAST/Fe MIC −Gua", "setting": "Mtb H37Rv (ATCC 27294) [1]; Mtb H37Rv, GAST/Fe medium, no guanine, 1 week", "result": "6.3 ± 0.0 (2) μM"}
    ]},
    {"compound": "C[C@H](Oc1cccc(Cl)c1Cl)C(=O)Nc1ccc2oc(-c3ccc(C(=O)NO)cc3)nc2c1", "note": "[Compound 21, (S)-4-(5-(2-(2,3-Dichlorophenoxy)propanamido)benzo[d]oxazol-2-yl)-N-hydroxybenzamide]", "values": [
      {"measurement": "antibacterial activity over two weeks", "setting": "Mtb H37Rv (ATCC 27294) [1]; Mtb H37Rv", "result": "retained activity"}
    ]},
    {"compound": "COc1ccc(-c2nc3cc(NC[C@H](C)Oc4cccc(Cl)c4Cl)ccc3o2)cc1", "note": "[Compound 11, (S)-N-(2-(2,3-Dichlorophenoxy)propyl)-2-(4-methoxyphenyl)benzo[d]oxazol-5-amine]", "values": [
      {"measurement": "pKi", "setting": "human GMPR2", "result": "< 5.30"}
    ]},
    {"compound": "C[C@H](Nc1cccc(F)c1F)C(=O)Nc1ccc2oc(-c3ccc(C#N)cc3)nc2c1", "note": "[Compound 17b, (S)-N-(2-(4-Cyanophenyl)benzo[d]oxazol-5-yl)-2-((2,3-difluorophenyl)amino)propanamide]", "values": [
      {"measurement": "cytotoxicity", "setting": "HEK293T cells", "result": "less than 10%"},
      {"measurement": "stability in mouse plasma", "setting": "[2]", "result": "No decomposition"},
      {"measurement": "cytotoxicity", "setting": "Hela cells", "result": "less than 10%"},
      {"measurement": "cytotoxicity, lactate dehydrogenase release", "setting": "HepG2 cells", "result": "9–13%"},
      {"measurement": "LD50", "setting": "HepG2 cells", "result": "> 25", "unit": "µM"},
      {"measurement": "antibacterial activity over two weeks", "setting": "Mtb H37Rv (ATCC 27294) [1]; Mtb H37Rv", "result": "retained antibacterial activity"},
      {"measurement": "effect of guanine on MIC", "setting": "Mtb H37Rv (ATCC 27294) [1]", "result": "does not change"},
      {"measurement": "cytotoxicity", "setting": "MCF7 cells", "result": "less than 10%"},
      {"measurement": "effect of ATc on antibacterial activity against the wild-type strain", "setting": "H37Rv", "result": "not affected"}
    ]},
    {"compound": "C#CCOC(=O)COc1ccc(-c2nc3cc(NC(=O)[C@H](C)Oc4cccc(Cl)c4Cl)ccc3o2)cc1", "note": "[Compound 20, Prop-2-yn-1-yl (S)-2-(4-(5-(2-(2,3-dichlorophenoxy)propanamido)benzo[d]oxa-zol-2-yl)phenoxy)acetate]", "values": [
      {"measurement": "cytotoxicity (in words)", "setting": "HepG2 cells", "result": "Only compounds 8p, 8u and 17b displayed measurable cytotoxicity"},
      {"measurement": "antibacterial activity over two weeks", "setting": "Mtb H37Rv (ATCC 27294) [1]; Mtb H37Rv", "result": "retained antibacterial activity"}
    ]},
    {"compound": "C[C@H](Nc1cccc(Cl)c1Cl)C(=O)Nc1ccc2oc(-c3ccc(C#N)cc3)nc2c1", "note": "[Compound 17a, (S)-N-(2-(4-Cyanophenyl)benzo[d]oxazol-5-yl)-2-((2,3-dichlorophenyl)amino)propanamide]", "values": [
      {"measurement": "antibacterial activity over two weeks", "setting": "Mtb H37Rv (ATCC 27294) [1]; Mtb H37Rv", "result": "retained antibacterial activity"}
    ]},
    {"compound": "C[C@H](Oc1cccc(Cl)c1Cl)C(=O)Nc1ccc2oc(-c3ccc(C(=O)O)cc3)nc2c1", "note": "[Compound 22, (S)-4-(5-(2-(2,3-Dichlorophenoxy)propanamido)benzo[d]oxazol-2-yl)benzoic acid]", "values": [
      {"measurement": "antibacterial activity over two weeks", "setting": "Mtb H37Rv (ATCC 27294) [1]; Mtb H37Rv", "result": "retained activity"},
      {"measurement": "effect of ATc on antibacterial activity against the wild-type strain", "setting": "H37Rv", "result": "not affected"}
    ]},
    {"compound": "C[C@H](Oc1cccc(F)c1F)C(=O)Nc1ccc2oc(-c3ccc(O)cc3)nc2c1", "note": "[Compound 8n, (S)-2-(2,3-Difluorophenoxy)-N-(2-(4-hydroxyphenyl)benzo[d]oxazol-5-yl)propanamide]", "values": [
      {"measurement": "effect of guanine on MIC", "setting": "Mtb H37Rv (ATCC 27294) [1]", "result": "increased substantially in the presence of guanine in both media"}
    ]},
    {"compound": "C[C@H](Oc1cccc(Cl)c1Cl)C(=O)Nc1ccc2oc(-c3ccc(OCC(=O)O)cc3)nc2c1", "note": "[Compound 19a, (S)-2-(4-(5-(2-(2,3-Dichlorophenoxy)propanamido)benzo[d]oxazol-2-yl)phenoxy)acetic acid]", "values": [
      {"measurement": "cytotoxicity (in words)", "setting": "HepG2 cells", "result": "no cytotoxicity was observed"}
    ]},
    {"compound": "COc1ccc(-c2nc3cc(NC(=O)[C@H](C)Oc4cccc(Cl)c4Cl)ccc3o2)cn1", "note": "[Compound 8c, (S)-2-(2,3-dichlorophenoxy)-N-(2-(6-methoxypyridin-3-yl)benzo[d]oxazol-5-yl)propanamide]", "values": [
      {"measurement": "effect of guanine on MIC", "setting": "Mtb H37Rv (ATCC 27294) [1]", "result": "increased in the presence of guanine in 7H9/ADC/Tween medium but not in GAST/Fe"}
    ]},
    {"compound": "COc1ccc(OC(C)C(=O)Nc2ccc3oc(-c4ccncc4)nc3c2)cc1", "note": "(stereo not shown) [Compound 1, reference compound]", "values": [
      {"measurement": "7H9/ADC/Tween MIC −Gua", "setting": "Mtb H37Rv (ATCC 27294) [3]", "result": "10 ± 2 (3) μM"},
      {"measurement": "effect of ATc on antibacterial activity against the wild-type strain", "setting": "H37Rv", "result": "not affected"}
    ]}
  ]
}
